{"source": "paper PMC8772930", "about": "“Experimental and Molecular Docking Studies of Cyclic Diphenyl Phosphonates as DNA Gyrase Inhibitors for Fluoroquinolone-Resistant Pathogens” (Antibiotics, 2022)", "molecular_target": "T1, DNA gyrase (Escherichia coli, UniProt P0AES6)", "T1 construct": "gene gyrB; with DNA gyrase subunit A (GyrA)", "assay": "DNA supercoiling inhibition assay (Inspiralis E. coli gyrase microplate kit, agarose gel)", "type": "biochemical", "note": "pIC50: −log10 of the molar value."}
{"compound": "NN1C=CCCC1P(=O)(Oc1ccccc1)Oc1ccccc1", "note": "(stereo not shown) [2a, cyclic diphenylphosphonate 2a]", "values": [{"measurement": "pIC50", "result": 4.92}]}
